Test results as given in patent publication US20160137639A1, “TRIAZOLE-ISOXAZOLE COMPOUND AND MEDICAL USE THEREOF” (JAPAN TOBACCO INC., priority 2012, published 2016).
Where two headings read alike, the source gives them in different places.

Tests used:
[1] = molecular target: T1, human RORγ (Homo sapiens, UniProt P51449); assay: Luciferase reporter gene assay of inhibitory effect against RORγ transcriptional activity (GAL4-hRORγ plasmid in CHO cells); type: cell-based
T1 construct: human, NM_005060.3 and from Ser253 to Lys518; expressed in transfected cells; host or cells: CHO cells (transient co-transfection with pG5-Luc reporter)
T1 sequence (P51449 253-518): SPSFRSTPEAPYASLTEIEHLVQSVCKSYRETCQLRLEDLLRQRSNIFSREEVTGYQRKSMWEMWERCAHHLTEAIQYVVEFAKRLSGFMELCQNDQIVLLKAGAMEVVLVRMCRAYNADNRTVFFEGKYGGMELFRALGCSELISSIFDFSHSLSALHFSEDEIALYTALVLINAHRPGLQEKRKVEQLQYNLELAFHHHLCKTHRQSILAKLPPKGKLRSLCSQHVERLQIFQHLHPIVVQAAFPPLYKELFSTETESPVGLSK

[2] = molecular target: T2, mouse RORγ (Mus musculus, UniProt P51450); assay: Luciferase reporter gene assay of inhibitory effect against RORγ transcriptional activity (GAL4-mRORγ plasmid in CHO cells); type: cell-based
T2 construct: mouse, NM_011281.2 and from Ile251 to Lys516; expressed in transfected cells; host or cells: CHO cells (transient co-transfection with pG5-Luc reporter)
T2 sequence (P51450 251-516): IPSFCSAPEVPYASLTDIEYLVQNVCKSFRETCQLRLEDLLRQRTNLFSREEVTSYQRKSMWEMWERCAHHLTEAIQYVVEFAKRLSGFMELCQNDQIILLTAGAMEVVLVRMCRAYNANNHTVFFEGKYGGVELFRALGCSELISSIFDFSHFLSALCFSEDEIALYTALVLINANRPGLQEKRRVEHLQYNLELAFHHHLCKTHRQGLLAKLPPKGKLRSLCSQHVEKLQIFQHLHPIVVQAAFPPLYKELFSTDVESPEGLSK
In short: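 CHO cells transiently co-transfected with GAL4-mouse RORγ LBD (Ile251–Lys516) and GAL4-dependent luciferase reporter; eight compound concentrations, 0.1% DMSO, 2 days at 37 °C. Luminescence as %-of-vehicle control; EC50 by curve fit, cytotoxic concentrations excluded.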

| Structure (SMILES) | EC50 ([1]; read-out: LUC EC50 (μM) hRORg) | EC50 ([2]; read-out: LUC EC50 (μM) mRORg) | EC50 ([1]; read-out: LUC EC50 hRORg) | EC50 ([2]; read-out: LUC EC50 mRORg) |
| --- | --- | --- | --- | --- |
| Cc1ccc(NC(=O)C[C@H](CCC(=O)O)c2noc(-c3cc(CC(C)C)no3)c2C2CC2)c(Cl)c1 [Example E-04, (S)-5-(2-chloro-4-methyl-phenylcarbamoyl)-4-(4-cyclopropyl-3′-isobutyl-[5,5′]biisoxazolyl-3-yl)-pentanoic acid] | < 3 µM | < 3 µM |  |  |
| Cc1ccc(NC(=O)CC(CN(C)C)c2nnc(CCCC(C)C)n2C2CC2)c(C)c1 (racemic) [Example F-278] | > 3 µM | < 3 µM |  |  |
| Cc1c(Cl)cccc1NC(=O)CCc1nnc(C2CN(C(=O)OC(C)(C)C)C2)n1C1CC1 [Example F-234] | > 3 µM | < 3 µM |  |  |
| O=C(CCc1nnc(C2Cc3ccccc3C2)[nH]1)Nc1cccc2ccccc12 [Example F-9] | > 3 µM | > 3 µM |  |  |
| CC(C)CCc1nnc(CCC(=O)NCc2ccc(C(F)(F)F)cc2)n1C1CC1 [Example F-129] | > 3 µM | > 3 µM |  |  |
| CC(=O)N1CC([C@H](CC(=O)Nc2ccc(C)cc2C)c2nnc([C@H]3C[C@@H](CC(C)C)C3)n2C2CC2)C1 [Example F-467] | > 3 µM | > 3 µM |  |  |
| Cc1c(F)cccc1NC(=O)CCc1nnc(CCC(C)C)n1C1CC1 [Example F-101] | > 3 µM | > 3 µM |  |  |
| COc1cc(C)c(Cl)cc1CNC(=O)CCc1nnc(CCC(C)C)n1C1CC1 [Example F-204] | > 3 µM | > 3 µM |  |  |
| Cc1ccc(NC(=O)C[C@H](CCC(=O)O)c2noc([C@H]3C[C@@H](CC(C)(C)C(=O)O)C3)c2C2CC2)c(Cl)c1 [Example F-727] |  |  | > 3 µM | > 3 µM |
| COc1cc(C)ccc1CNC(=O)[C@H]1CCC(=O)N(C)[C@@H]1c1nnc(CCCC(C)(C)C)n1C1CC1 [Example F-323] | < 3 µM | < 3 µM |  |  |
| Cc1c(Cl)cccc1NC(=O)CCc1nnc(CCN(C)C(C)(C)C)n1C1CC1 [Example F-294] | > 3 µM | > 3 µM |  |  |
| CCn1c(CCC(=O)Nc2ccccc2)nnc1C1Cc2ccccc2C1 [Example F-23] | > 3 µM | > 3 µM |  |  |
| CC(C)CCc1nnc(CCC(=O)NCc2ccccc2Cl)n1C1CC1 [Example F-121] | > 3 µM | > 3 µM |  |  |
| CC(=O)N1C[C@@H](C(=O)Nc2ccc(C)cc2C)[C@H](c2nnc(C3CC4(CCCCC4)C3)n2C2CC2)C1 [Example F-474] | > 3 µM | < 3 µM |  |  |
| Cc1ccc(NC(=O)C[C@H](CCC(=O)O)c2noc([C@H]3C[C@@H](CC(C)(C)CO)C3)c2C2CC2)c(Cl)c1 [Example F-716] |  |  | < 3 µM | < 3 µM |
| CCN(CC)CC(=O)N1C[C@H](C(=O)Nc2ccc(C)cc2C)[C@@H](c2nnc([C@H]3C[C@@H](CC(C)C)C3)n2C2CC2)C1 [Example F-654] |  |  | > 3 µM | < 3 µM |
| C=CCC(CC(=O)Nc1cccc(Cl)c1C)c1nnc(CCCC(C)C)n1C1CC1 (racemic) [Example F-197] | < 3 µM | < 3 µM |  |  |
| CCC(C)CCc1nnc(CCC(=O)Nc2ccc(C)cc2C)n1C1CC1 (racemic) [Example F-236] | > 3 µM | < 3 µM |  |  |
| Cc1cc(Cl)ccc1NC(=O)C[C@H](OCC(F)(F)F)c1nnc(-c2cc(CC(C)C)on2)n1C1CC1 [Example F-630] |  |  | < 3 µM | < 3 µM |
| Cc1c(Cl)cccc1NC(=O)CCc1nnc(COC2CCCCC2)n1C1CC1 [Example F-144] | < 3 µM | < 3 µM |  |  |
| Cc1ccc(NC(=O)C[C@H](CCC(=O)O)c2noc(-c3cc(CCC(F)(F)F)on3)c2C2CC2)c(Cl)c1 [Example E-50] | < 3 µM | < 3 µM |  |  |
| Cc1ccc(NC(=O)CCc2nnc(C3CC(CC(=O)OC(C)(C)C)C3)n2C2CC2)c(C)c1 (mixture of isomers) [Example F-427] | > 3 µM | < 3 µM |  |  |

| Structure (SMILES) | EC50 ([1]; read-out: LUC EC50 (μM) hRORg) | EC50 ([2]; read-out: LUC EC50 (μM) mRORg) | EC50 ([1]; read-out: LUC EC50 hRORg) | EC50 ([2]; read-out: LUC EC50 mRORg) |
| --- | --- | --- | --- | --- |
| Cc1ccc(NC(=O)CCc2noc([C@H]3C[C@@H](CC(C)C)C3)c2/C=C/C(=O)O)c(C)c1 [Example F-646] |  |  | > 3 µM | > 3 µM |
| Cc1ccc(C)c(NC(=O)CCc2nnc(CCC(C)C)n2C2CC2)c1 [Example F-71] | > 3 µM | > 3 µM |  |  |
| Cc1c(Cl)cccc1NC(=O)CCc1nnc(CCC(=O)O)n1C1CC1 [Example F-185] | > 3 µM | > 3 µM |  |  |
| Cc1ccc(NC(=O)CC(CCOCc2ccccc2)c2nnc(-c3cc(CC(C)C)on3)n2C2CC2)c(C)c1 (racemic) [Example F-455] | > 3 µM | < 3 µM |  |  |
| CC(=O)N1C[C@@H](C(=O)Nc2ccc(C)cc2C)[C@H](c2nnc([C@H]3C[C@@H](CC(C)(C)C)C3)n2C2CC2)C1 [Example F-462] | < 3 µM | < 3 µM |  |  |
| Cc1cccc(NC(=O)CCc2nnc(CCCC(C)C)n2C2CC2)c1C [Example F-216] | < 3 µM | < 3 µM |  |  |
| Cc1ccc(NC(=O)C[C@@H](CCO)c2nnc(-c3cc(CC(C)C)on3)n2C2CC2)c(C)c1 [Example F-458] | > 3 µM | > 3 µM |  |  |
| CNC(=O)C(C)(C)CCCc1nnc(CCC(=O)Nc2cccc(Cl)c2C)n1C1CC1 [Example F-237] | > 3 µM | > 3 µM |  |  |
| Cc1c(Cl)cccc1NC(=O)CCc1nnc(CCC(C)(C)C(=O)O)n1C1CC1 [Example F-226] | > 3 µM | > 3 µM |  |  |
| CC(C)(C)C(F)(F)c1cc(-c2onc([C@@H](CCC(=O)O)CC(=O)Nc3ccc(Cl)cc3F)c2C2CC2)no1 [Example E-77] |  |  | < 3 µM | < 3 µM |
| Cc1cccc(NC(=O)CCc2nnc(CCC(C)C)n2C2CC2)c1 [Example F-65] | > 3 µM | > 3 µM |  |  |
| CC(=O)N1C[C@H](C(=O)Nc2ccc(C)cc2C)[C@@H](c2nnc(CCOC(C)(C)C)n2C2CC2)C1 (racemic) [Example F-222] | > 3 µM | < 3 µM |  |  |
| Cc1ccc(NC(=O)CC(CCO)c2nnc(CCCC(C)C)n2C2CC2)c(C)c1 (racemic) [Example F-201] | < 3 µM | < 3 µM |  |  |
| Cc1c(NC(=O)C[C@H](CCO)c2nnc(-c3cc(CC(C)C)on3)n2C2CC2)ccc(F)c1F [Example F-662] |  |  | < 3 µM | < 3 µM |
| Cc1ccc(NC(=O)CCc2nnc(CCC(C)(C)C)n2C2CC2)c(C)c1 [Example F-69] | > 3 µM | < 3 µM |  |  |
| CCCc1ccc(C)c(NC(=O)CCc2nnc(CCC(C)C)n2C2CC2)c1 [Example F-153] | > 3 µM | > 3 µM |  |  |
| Cc1ccc(NC(=O)C[C@H](CC#N)c2nnc([C@H]3C[C@@H](CC(C)C)C3)n2C2CC2)c(C)c1 [Example F-465] | < 3 µM | < 3 µM |  |  |
| CC(C)Cc1cc(-c2nnc([C@H](CC(=O)Nc3cccc4c3OC(F)(F)O4)OC(C)C)n2C2CC2)no1 [Example F-584] |  |  | > 3 µM | < 3 µM |
| CC(C)(C)C[C@H]1C[C@@H](c2noc([C@@H](CCC(=O)O)CC(=O)Nc3ccc(Cl)cc3F)c2C2CC2)C1 [Example F-717] |  |  | < 3 µM | < 3 µM |
| Cc1c(Cl)cccc1NC(=O)CC(CCCO)c1nnc(CCC(C)C)n1C1CC1 (racemic) [Example F-196] | < 3 µM | < 3 µM |  |  |
| Cc1ccc(NC(=O)CC(CCO)c2nnc(CCCC(C)(C)C)n2C2CC2)c(C)c1 (racemic) [Example F-307] | < 3 µM | < 3 µM |  |  |
| Cc1cc(F)ccc1NC(=O)C[C@H](OC(C)C)c1nnc(-c2cc(CC(C)C)on2)n1C1CC1 [Example F-576] |  |  | < 3 µM | < 3 µM |
